According to US20230054093A1, “TREATMENT” (priority 2019, published 2023):

What was measured:
[1] = biological target: T1, Streptococcus pneumoniae NanA sialidase CBM (SpCBM, SEQ ID NO: 4) variant Im21 V246G (Streptococcus pneumoniae, UniProt P62575, V246G); assay: Surface plasmon resonance (SPR, Biacore) binding affinity to sialyllactose; design: key: Green: green indicates that the variant closely resembles its WT counterpart for that particular characteristic; Green’: pale green (green’) or yellow indicate increasing degrees of differences; Yellow: pale green (green’) or yellow indicate increasing degrees of differences; Orange: Red or orange indicate significant differences; Red or orange indicate significant differences; conditions: qualitative colour code vs WT
T1 construct: SpCBM, residues 121-305 of S. pneumoniae NanA sialidase; 6His (pHISTEV) (cleaved yes); made in house; host or cells: E. coli
Source text: (§1) The 13 soluble proteins were expressed in E. coli and purified by immobilized metal affinity chromatography (IMAC), followed by TEV digestion to remove the 6His-tag, then reverse IMAC and size exclusion chromatography (SEC).
(§2) Ten purified domains (WTSp, Im19, Im20, Im21, Im22, Im23, WTTD, Im24, Im26 and Im27) were further characterized by:
(§3) (iv) Surface plasmon resonance (SPR) to measure binding affinity to sialyllactose

[2] = biological target: T2, Streptococcus pneumoniae NanA sialidase CBM (SpCBM, SEQ ID NO: 4) variant Im20 V239T (Streptococcus pneumoniae, UniProt P62575, V239T); assay: as above; design: key: Green: green indicates that the variant closely resembles its WT counterpart for that particular characteristic; Green’: pale green (green’) or yellow indicate increasing degrees of differences; Yellow: pale green (green’) or yellow indicate increasing degrees of differences; Orange: Red or orange indicate significant differences; Red or orange indicate significant differences; conditions: qualitative colour code vs WT
T2 construct: SpCBM, residues 121-305 of S. pneumoniae NanA sialidase; 6His (pHISTEV) (cleaved yes); made in house; host or cells: E. coli
Source text: as §1, §2, §3

[3] = biological target: T3, Streptococcus pneumoniae NanA sialidase CBM (SpCBM, SEQ ID NO: 4) variant Im19 V239A (Streptococcus pneumoniae, UniProt P62575, V239A); assay: as above; design: key: Green: green indicates that the variant closely resembles its WT counterpart for that particular characteristic; Green’: pale green (green’) or yellow indicate increasing degrees of differences; Yellow: pale green (green’) or yellow indicate increasing degrees of differences; Orange: Red or orange indicate significant differences; Red or orange indicate significant differences; conditions: qualitative colour code vs WT
T3 construct: SpCBM, residues 121-305 of S. pneumoniae NanA sialidase; 6His (pHISTEV) (cleaved yes); made in house; host or cells: E. coli
Source text: as §1, §2, §3

[4] = biological target: T4, Streptococcus pneumoniae NanA sialidase CBM (SpCBM, SEQ ID NO: 4) variant Im22 I286A (Streptococcus pneumoniae, UniProt P62575, I286A); assay: as above; design: key: Green: green indicates that the variant closely resembles its WT counterpart for that particular characteristic; Green’: pale green (green’) or yellow indicate increasing degrees of differences; Yellow: pale green (green’) or yellow indicate increasing degrees of differences; Orange: Red or orange indicate significant differences; Red or orange indicate significant differences; conditions: qualitative colour code vs WT
T4 construct: SpCBM, residues 121-305 of S. pneumoniae NanA sialidase; 6His (pHISTEV) (cleaved yes); made in house; host or cells: E. coli
Source text: as §1, §2, §3

[5] = biological target: T5, Streptococcus pneumoniae NanA sialidase CBM (SpCBM, residues 121-305), wild type WTSp, SEQ ID NO: 4 (Streptococcus pneumoniae, UniProt P62575); assay: as above; design: key: Green: green indicates that the variant closely resembles its WT counterpart for that particular characteristic; Green’: pale green (green’) or yellow indicate increasing degrees of differences; Yellow: pale green (green’) or yellow indicate increasing degrees of differences; Orange: Red or orange indicate significant differences; Red or orange indicate significant differences; conditions: qualitative colour code vs WT
T5 construct: SpCBM, residues 121-305 of S. pneumoniae NanA sialidase; 6His (pHISTEV) (cleaved yes); made in house; host or cells: E. coli
Source text: as §1, §2, §3

[6] = biological target: T6, Streptococcus pneumoniae NanA sialidase CBM (SpCBM, SEQ ID NO: 4) variant Im23 Y292E (Streptococcus pneumoniae, UniProt P62575, Y292E); assay: as above; design: key to Biacore (binding affinity to sialyllactose): Green: green indicates that the variant closely resembles its WT counterpart for that particular characteristic; Green’: pale green (green’) or yellow indicate increasing degrees of differences; Yellow: pale green (green’) or yellow indicate increasing degrees of differences; Orange: Red or orange indicate significant differences; Red or orange indicate significant differences
T6 construct: SpCBM, residues 121-305 of S. pneumoniae NanA sialidase; 6His (pHISTEV) (cleaved yes); made in house; host or cells: E. coli
Source text: as §1, §2, §3

[7] = biological target: T7, Sp2CBMTD (SpOrig, SEQ ID NO: 7) variant HEX17 A162P/V239A/V246G/S342D/R403K, SEQ ID NO: 9 (Streptococcus pneumoniae, UniProt P62575, A162P/V239A/V246G); assay: Biacore characterization of hexameric Sp2CBMTD variants; format: binding, Streptococcus pneumoniae (CBM); Pseudomonas aeruginosa (TD); design: key: Green: green indicates that the variant closely resembles its WT counterpart for that particular characteristic; Green’: pale green (green’) or yellow indicate increasing degrees of differences; Yellow: pale green (green’) or yellow indicate increasing degrees of differences; Orange: Red or orange indicate significant differences; Red or orange indicate significant differences; conditions: qualitative colour code vs WT hexamer
T7 construct: PDB 2w38); trimerises; pHISTEV 6His, E. coli
Source text: as §3

[8] = biological target: T8, Sp2CBMTD (SpOrig, SEQ ID NO: 7) variant HEX6 V239A/V246G/S342D/R403K, SEQ ID NO: 8 (Streptococcus pneumoniae, UniProt P62575, V239A/V246G); assay: as above; format: binding, Streptococcus pneumoniae (CBM); Pseudomonas aeruginosa (TD); design: key: Green: green indicates that the variant closely resembles its WT counterpart for that particular characteristic; Green’: pale green (green’) or yellow indicate increasing degrees of differences; Yellow: pale green (green’) or yellow indicate increasing degrees of differences; Orange: Red or orange indicate significant differences; Red or orange indicate significant differences; conditions: qualitative colour code vs WT hexamer
T8 construct: trimerises; pHISTEV 6His, E. coli
Source text: as §3

CC(=O)N[C@H]1[C@H]([C@H](O)[C@H](O)CO)O[C@@](O[C@H]2[C@@H](O)[C@@H](CO)O[C@@H](O[C@H]3[C@H](O)[C@@H](O)C(O)O[C@@H]3CO)[C@@H]2O)(C(=O)O)C[C@@H]1O (stereo partly drawn) [sialyllactose]
Biacore (binding affinity to sialyllactose) [1]: Green | Biacore (binding affinity to sialyllactose) [2]: Green | Biacore (binding affinity to sialyllactose) [3]: Green | Biacore (binding affinity to sialyllactose) [4]: Green | Biacore (binding affinity to sialyllactose) [5]: Green | ligand affinity ([6]; in words, compared with WT): reduced ligand affinity | Biacore (binding affinity to sialyllactose) ([6]; qualitative colour code vs WT): Yellow | Biacore [7]: Green | Biacore [8]: Green
